Patent US20250163387A1, “HUMAN PITUITARY NEUROENDOCRINE TUMOR ORGANOIDS AND METHODS OF MAKING AND USING THE SAME” (ARIZONA BOARD OF REGENTS OF THE UNIVERSITY OF ARIZONA, A …, priority 2022, published 2025)
Numbered stars: 1 amine (or outer) side, 2 acyl side, 3 side chain; on linkers, the order of the positions; unused ones are H or OH. Square brackets hold non-standard residues; d marks the D form. Side chains are listed from the residue outwards. Peptide text beside a SMILES is read from it. * marks the point of attachment. Ethylenediamine = C(CN[*:2])N[*:1]; Hyp = O=C(O)[C@@H]1C[C@@H](O)CN1; Phg = N[C@H](C(=O)O)c1ccccc1; CO = O=C([*:1])[*:2]; Bn = c1ccc(C*)cc1

Legend:
SSTR2 = test: Differential expression of SSTR2 in iPSC generated pituitary tumor organoids; type: cell-based, human; details: for effect on relacorilant stimulated SSTR2: iPSC organoids; for effect of pretreatment on Mifepristone-induced SSTR2 expression / differential expression of SSTR2: iPSC^ctrl organoids; for effect of pretreatment on Mifepristone-induced SSTR2 expression: GANT 5 uM, Keto 10 uM; for differential expression of SSTR2: drug alone (Mife 500 nM, GANT 5 uM, Keto 10 uM, Dexa 100 nM)
[1] = tested on: transcriptional regulation of POMC by Gli1; test: Gene ChIP assay in hPITO cultures expressing USP8 and USP48 mutations; type: cell-based, human
SSTR5 [2] = test: Differential expression of SSTR5 in iPSC generated pituitary tumor organoids; type: cell-based, human; details: for effect on relacorilant stimulated SSTR5: iPSC organoids; for effect of pretreatment on Mifepristone-induced SSTR5 expression / differential expression of SSTR5: iPSC^ctrl organoids; for effect of pretreatment on Mifepristone-induced SSTR5 expression: GANT 5 uM, Keto 10 uM; for differential expression of SSTR5: drug alone (Mife 500 nM, GANT 5 uM, Keto 10 uM, Dexa 100 nM)
hPITO35 = details: for Dose response (cell viability): organoid 35, compared to Cabergoline
Protocol: (§1) Organoids were grown in Matrigel™ domes within 96-well round-bottom culture plates. Recombinant human SHH was removed from the pituitary organoid growth media, 24 hrs. prior to drug treatment. Organoids were treated with either vehicle (DMSO), cabergoline (Selleckchem S5842), ketoconazole (Selleckchem S1353), roscovitine (Selleckchem S1153), GANT61 (Stemcell Technologies 73692), pasireotide (TargetMol TP2207), mifeprostone (Selleckchem S2606), etomidate (Selleckchem S1329), mitotane (Selleckchem S1732), metyropane (Selleckchem S5416), or osilodrostat (Selleckchem S7456) at concentrations of 0, 1, 10, 100, 1000, and 10000 nM for 72 hours. Percent cell viability was measured using an MTS assay (Promega G3580). Absorbance was measured at 490 nm and normalized to the vehicle. Concentrations were plotted in a logarithmic scale, and a nonlinear dose-response curve regression was calculated using GraphPad Prism. An IC50 value for each drug treatment was determined based on the dose response curve using GraphPad Prism analysis software.

iPSC^USP48MV organoids [3] = test: Proliferation by EdU uptake; type: cell-based, human; details: 100 nM
Protocol: (§2) Organoids were immunostained using published protocols by our laboratory. Proliferation was measured by using 5-ethynyl-2'-deoxyuridine (EdU) incorporation according to the Manufacturer's protocol (Click-IT EdU Alexa Fluor 555 Imaging Kit, Thermo Fisher Scientific C10338). Costaining was performed by blocking fixed organoids with 2% donkey serum (Jackson Immuno Research, #017-000-121) diluted in 0.01% PBST for 1 hr. at room temperature. Organoids were then incubated overnight at 4° C. with primary antibodies followed by secondary antibodies and Hoechst (Thermo Fisher Scientific H1399, 1:1000 in 0.01% PBST) for 1 hr at room temperature. Human specific primary antibodies used included: rabbit anti-ACTH (Thermo Fisher Scientific 701293, 1:250), rabbit anti-Synaptophysin (Thermo Fisher Scientific PA5-27286, 1:100), […] (Thermo Fisher Scientific PA5-98650, 1:50), rabbit anti-LH (Thermo Fisher Scientific PA5-102674, 1:100), mouse anti-FSH (Thermo Fisher Scientific MIF2709, 1:100), mouse anti-PRL (Thermo Fisher Scientific CF500720, 1:100), Alexa Flour conjugated GH (NB500-364AF647, 1:100) and mouse anti-CAM5.2 (SIGMA […]-95, 1:250). The secondary antibodies used included Alexa Fluor 488 Donkey Anti Rabbit IgG (H+L) (Thermo Fisher Scientific A21206, 1:100) or Alexa Fluor 647 Donkey Anti Mouse IgG (H+L) (Thermo Fisher Scientific A31571, 1:100). Organoids were visualized and images acquired by confocal microscopy using the Nikon CrestV2 Spinning Disk. Fluorescence intensity and percentage of EdU positive cells of total cells, were calculated using Nikon Elements Software (Version 5.21.05).

iPSC^ctrl organoids [4] = test: Proliferation by EdU uptake; type: cell-based, human; details: 100 nM
Protocol: as §2

iPSC^USP48MV organoids [5] = test: ACTH secretion ELISA of conditioned media; type: cell-based, human; details: for effect on ACTH secretion in response to Mifepristone: 100 nM with Mife 500 nM
Protocol: (§3) Concentration of secreted ACTH in conditioned media that was collected from organoid cultures was measured using the Human ACTH ELISA Kit (Novus Biologicals, NBP2-66401) according to the manufacturer's protocol. The enzyme-substrate reaction was measured spectrophotometrically (BioTek Gen5 Micro Plate Reader Version 3.11) at a wavelength of 450 nm and the ACTH concentration (pg/mL) was interpolated using a standard curve with a 4-parameter logistic regression analysis using GraphPad Prism (Version 9.2.0).

iPSC^ctrl organoids [6] = test: ACTH secretion ELISA of conditioned media; type: cell-based, human; details: for effect on ACTH secretion in response to Mifepristone: 100 nM with Mife 500 nM
Protocol: as §3

SSTR5 [7] = biological target: SSTR5 (Homo sapiens, UniProt P35346); details: cited from earlier work
hPITO37 = test: Spectral flow cytometry (SSTR2, SSTR5, ACTH, zombie); type: cell-based, human; details: Pas 837.5 nM, Mife 2.85 nM
Protocol: The multicolor flow cytometry panel was designed using the Cytek®Full Spectrum Viewer online tool to calculate the similarity index. The organoids were harvested in cold SFDM media and centrifuged at 400×g for 5 minutes. Supernatant was discarded and organoids were dissociated to single cells using Accutase® (Thermo Fisher Scientific 00-4555-56). The enzymatic reaction was stopped using prewarmed DPBS and cells were then centrifuged at 400×g for 5 minutes and incubated with fluorochrome-conjugated/unconjugated primary surface or cytoplasmic antibodies at 4° C. for 30 minutes. Cells were then washed with Cell Staining Buffer (BioLegend #420-201) and incubated with secondary antibodies at 4° C. for 30 minutes. Cells were fixed using Cytofix/Cytoperm™ Fixation/Permeabilization Solution (BD Biosciences #554714) at 4° C. for 20 minutes, followed by washing with Fixation/Permeabilization wash buffer. Cells were then labeled with fluorochrome-conjugated/unconjugated intracellular primary antibodies at 4° C. for 30 minutes, washed and incubated with secondary antibodies at 4° C. for 30 minutes. Cells resuspended in cell staining buffer and fluorescence measured using the Cytek Aurora 5 Laser Spectral Flow Cytometer. An unstained cell sample was fixed and used as reference control. UltraComp eBeads™, Compensation Beads (Thermo Fisher Scientific #01-2222-42) were stained with the individual antibodies and used as single stain control for compensation and gating. Data was acquired using the Cytek™ Aurora and analyzed using Cytobank software (Beckman Coulter, Indianapolis, IN).

[8] = monotherapy; cited from earlier work
hPITO34 = tested on: hPITO34
Protocol: as §1

hPITO33 = test: Drug dose response, MTS cell viability assay; type: cell-based, human
[9] = tested on: hPITOs generated from CD patients; test: High-throughput drug screen, MTS assay; type: cell-based, human; details: 1 uM, 72 hrs
Protocol: Patient adenoma-derived pituitary organoids were grown in 96-well plates and treated with 147 small molecules taken from the NCI AOD9 compound library for 72 hrs. (https://dtp.cancer.gov/organization/dscb/obtaining/available_plates.html). Drugs were diluted from 10 mM DMSO stock plates into 100 uM DMSO working stocks with a final concentration of 1 uM. All vehicle controls were treated with 0.1% DMSO. Organoid proliferation was measured using CellTiter 96® AQueous One Solution Cell Proliferation Assay kit (MTS, Promega, G3582) according to the manufacturer's instruction. Organoid death was calculated based on the absorbance readings at 490 nm, collected from the MTS assay relative to the vehicle controls. Drug screens were performed with biological replicates in same screen. Drugs were selected based on their ability to target key signaling pathways and clinical relevance to the treatment. Drug sensitivity is represented by cell viability and is significant at <0.5 suppressive effect of the drugs. The percent cell viability relative to the vehicle control was calculated. Correlation coefficient across each organoid were calculated using Pearson method to assess confidence in replication. Variance Component was detected for each drug across all organoids. A random effect model was run with a single random factor for each drug and estimated variance was calculated by rejecting the null hypothesis that there isn't variation among samples. The drug responses were grouped by variance factor large (vc>100), median (100>vc>50), and small (vc<50). Heatmap was used to display the differential responses in cell viability for the drugs.
Tumor recurrence can occur in as many as 30-50% of CD patients after successful surgical treatment. Unfortunately, bilateral adrenalectomy is the chosen surgical treatment for patients with persistent CD [35]. Bilateral adrenalectomy leads to the increased risk for development of Nelson's syndrome (progressive hyperpigmentation due to ACTH secretion and expansion of the residual pituitary tumor). Although the risk of developing Nelson's syndrome following adrenalectomy can be reduced by 50% with stereotactic radiotherapy, there is a need to develop medical therapies that directly target the pituitary adenoma. Thus, we established a high-throughput drug screening assay using patient-derived pituitary organoids. […] The replicates behaved consistently with the drug response with the correlation scores of >0.8 for these samples (FIG. 3a). We estimated the variance component for each drug across all organoids. […] The drug responses were grouped by variance factor large, median, and small. The larger the variance the more variable is the drug response across the organoids. […]

[10] = greater magnitude than Octreotide plus relacorilant

Sequence of SSTR5 (Homo sapiens, UniProt P35346) (P35346 whole entry): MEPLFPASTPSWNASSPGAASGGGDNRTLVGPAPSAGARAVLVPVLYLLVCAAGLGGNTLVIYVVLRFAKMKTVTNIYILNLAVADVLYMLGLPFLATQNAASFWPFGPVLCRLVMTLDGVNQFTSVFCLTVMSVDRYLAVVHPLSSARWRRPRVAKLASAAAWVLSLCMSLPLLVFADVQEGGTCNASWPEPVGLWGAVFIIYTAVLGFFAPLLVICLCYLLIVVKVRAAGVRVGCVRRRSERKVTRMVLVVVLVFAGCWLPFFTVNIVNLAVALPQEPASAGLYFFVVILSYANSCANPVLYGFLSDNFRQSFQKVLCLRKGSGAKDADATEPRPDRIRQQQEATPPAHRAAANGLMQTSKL

CN(C)c1ccccc1CN1CCCN(Cc2ccccc2N(C)C)C1c1ccncc1 [GANT61]
effect on relacorilant stimulated SSTR2 (SSTR2): inhibited
effect of pretreatment on Mifepristone-induced SSTR2 expression (SSTR2): reduced
differential expression of SSTR2 (SSTR2): no effect
transcriptional regulation of POMC by Gli1 (ChIP) [1]: blocked
effect on relacorilant stimulated SSTR5 (SSTR5 [2]): inhibited
effect of pretreatment on Mifepristone-induced SSTR5 expression (SSTR5 [2]): reduced
differential expression of SSTR5 (SSTR5 [2]): no effect

CC(C)(C(=O)c1cccnc1)c1cccnc1 [Metyrapone]
Dose response (cell viability) (hPITO35): better responses than Cabergoline

C[C@@H](O)[C@@H]1NC(=O)[C@H](CCCCN)NC(=O)[C@@H](Cc2c[nH]c3ccccc23)NC(=O)[C@H](Cc2ccccc2)NC(=O)[C@@H](NC(=O)[C@H](N)Cc2ccccc2)CSSC[C@@H](C(=O)N[C@H](CO)[C@@H](C)O)NC1=O [Octreotide]
effect of pretreatment on the proliferative response to Mife (iPSC^USP48MV organoids [3]): inhibited
effect of pretreatment on the proliferative response to Mife (iPSC^ctrl organoids [4]): inhibited
effect on ACTH secretion in response to Mifepristone (iPSC^USP48MV organoids [5]): significantly reduced
effect on ACTH secretion in response to Mifepristone (iPSC^ctrl organoids [6]): significantly reduced

NCCCC[C@@H]1NC(=O)[C@@H](Cc2c[nH]c3ccccc23)NC(=O)[C@H](c2ccccc2)NC(=O)[C@@H]2C[C@@H](OC(=O)NCCN)CN2C(=O)[C@H](Cc2ccccc2)NC(=O)[C@H](Cc2ccc(OCc3ccccc3)cc2)NC1=O [Pasireotide] (cyclo([Hyp]([CO-Ethylenediamine])[Phg][dW]KY(Bn)F))
effect of pretreatment on the proliferative response to Mife (iPSC^USP48MV organoids [3]): no effect
effect of pretreatment on the proliferative response to Mife (iPSC^ctrl organoids [4]): no effect
binding to SSTR5 (SSTR5 [7]): high-affinity binding
effect on ACTH secretion in response to Mifepristone (iPSC^USP48MV organoids [5]): significantly reduced
hormone (ACTH) secretion in combination with relacorilant (iPSC^USP48MV organoids [5]; [10]): reduced hormone secretion
effect on ACTH secretion in response to Mifepristone (iPSC^ctrl organoids [6]): significantly reduced
hormone (ACTH) secretion in combination with relacorilant (iPSC^ctrl organoids [6]; [10]): reduced hormone secretion
effect of pretreatment on Mife-increased number of ACTH expressing cells (hPITO37): not inhibited
patients with CD in whom cortisol is normalized [8]: up to 42%
IC50 (hPITO35; hPITO35, 72 hours, MTS cell viability): 1000 nM
IC50 (hPITO34; hPITO34, 72 hours, MTS cell viability): 6.1 nM
IC50 (hPITO33; hPITO33, 72 hours, MTS cell viability): 1200 nM

C=CCN1C[C@H](C(=O)N(CCCN(C)C)C(=O)NCC)C[C@@H]2c3cccc4[nH]cc(c34)C[C@H]21 [cabergoline]
response of the adenoma cells within the organoids ([9]; hPITO7, 10 and 25): ~0%
response of the adenoma cells within the organoids ([9]; hPITO34 and hPITO35): 50%
Dose response (cell viability) (hPITO34; organoid 34, compared to Metyrapone and osilodrostat): better response at lower dose
Dose response (cell viability) (hPITO33; organoid 33, compared to Metyrapone and osilodrostat): better response at lower dose

CC(=O)N1CCN(c2ccc(OCC3COC(Cn4ccnc4)(c4ccc(Cl)cc4Cl)O3)cc2)CC1 (centres unmarked) [ketoconazole]
effect on relacorilant stimulated SSTR2 (SSTR2): failed to block
effect of pretreatment on Mifepristone-induced SSTR2 expression (SSTR2): no effect
differential expression of SSTR2 (SSTR2): no effect
effect on relacorilant stimulated SSTR5 (SSTR5 [2]): failed to block
effect of pretreatment on Mifepristone-induced SSTR5 expression (SSTR5 [2]): no effect
differential expression of SSTR5 (SSTR5 [2]): no effect

N#Cc1ccc([C@H]2CCc3cncn32)c(F)c1 [osilodrostat]
Dose response (cell viability) (hPITO35): better responses than Cabergoline
